Where “and” joins values, the source holds several entries; their conditions need not be identical. Identical values can stand only once.
Legend:
[1] = Acid-soluble thiol concentration in the plasma during N-acetylcysteine ingestion; type: in vivo, human; details: healthy subject; NAC approximately 0.1-0.4 g per week, periods 1, 2, 5 and 6
Experimental: (§1) During the periods 1,2,5 and 6, the subject ingested small doses of N-acetylcysteine (NAC) (approximately 0.1-0.4 g per week) to adjust the acid-soluble thiol concentration in the plasma to an average value of about 15 μM, which corresponds approximately to the mean of healthy young subjects (see FIG. 1). In period 2, the subject ingested 3-4 times per week creatine at a dosis of approximately 3-4 g per week. In the period 4 and 6, the subject ingested creatine 6-7 times per week at a mean dose of approximately 6-8 g per week. Creatine was discontinued twice for one week each after the cystine level fell to a value of 40 and 41 μM, respectively. […] The P values illustrate the statistical significance for the differences between different treatment periods.

[2] = Plasma cystine concentration of a subject during creatine treatment periods; type: in vivo, human; details: healthy subject
From the text: FIG. 3 illustrates the results of a study that is described in more detail in example 1. The ordinate (c) describes the plasma cystine concentration in μMol. The columns 1-6 describe the mean plasma cystine concentrations during 6 successive treatment periods of a subject as described in example 1.
as §1

CC(=O)N[C@@H](CS)C(=O)O [N-acetylcysteine]
acid-soluble thiol concentration in the plasma, average value [1]: about 15 μM

CN(CC(=O)O)C(=N)N [creatine]
cystine level at which creatine was discontinued ([2]; creatine discontinued twice for one week each after the level fell to this value): 40 µM and 41 µM | plasma cystine level ([2]; relatively small oral doses of creatine (approx. 3-8 g per week) during a total period of about 2.5 years, level corresponds to 20-35 year-old healthy subjects): approximately 50 μ

From patent publication US6927231B2, “Use of creatine for the amelioration of oxidative stress” (2458781 Canada Inc., priority 2001, dated 2005)
